Results from the supplement of paper PMC11451515.

Legend:
Details in all cases: 48 h
NOMO1 [1] = assay: cell viability relative to DMSO control; higher = less cytotoxic
How it was run: (§1)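 Viability is expressed as a percentage of DMSO wells within each plate, and cell-free wells serve as background. Seeding densities in the 1536-well plates (5 μl) were 500 cells/well for NOMO1 or SEM leukemia cells and 1000 cells/well for P12-Ichikawa. Each line was adapted for at least four passages in each medium. Library compounds in DMSO were pin-dosed at 47 μM to 0.79 nM (11 points, threefold), and CellTiter-Glo One luminescence was read after 48 h at 37°C.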

P12-Ichikawa [2] = assay: as above
How it was run: as §1

SEM cells [3] = assay: as above
How it was run: as §1

NOMO1 [4] = assay: AUC of viability dose-response curve (% viability x log10 dose units); higher = less sensitive
How it was run: (§2)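 Medium-adapted leukemia cells in 1536-well plates, at 500 or 1000 cells/well, were incubated for 48 h at 37°C with library compounds in DMSO at 11 threefold doses from 47 μM to 0.79 nM. CellTiter-Glo One luminescence normalised per plate to DMSO and cell-free wells was fitted with a four-parameter log-logistic model over log10 doses. Area under the curve was integrated from this fit by trapezoidal rule, with curves beyond full viability scaled and failed quality-control curves removed.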

P12-Ichikawa [5] = assay: as above
How it was run: as §2

SEM cells [6] = assay: as above
How it was run: as §2

COC(=O)C[C@](O)(CCCC(C)(C)O)C(=O)O[C@@H]1C(OC)=CC23CCCN2CCc2cc4c(cc2[C@H]13)OCO4 (stereo partly specified)
cell viability [%]
Details	NOMO1 [1]	P12-Ichikawa [2]	SEM cells [3]
HPLM + 10% dialyzed FBS, 0.000781 µM	114	105	106
HPLM + 10% dialyzed FBS, 0.00234 µM	111	102	103
HPLM + 10% dialyzed FBS, 0.00702 µM	105	111	108
HPLM + 10% dialyzed FBS, 0.0211 µM	108	99.4	108
HPLM + 10% dialyzed FBS, 0.0632 µM	118	110	105
HPLM + 10% dialyzed FBS, 0.19 µM	107	106	120
HPLM + 10% dialyzed FBS, 0.569 µM	117	102	119
HPLM + 10% dialyzed FBS, 1.71 µM	97.1	97.1	109
HPLM + 10% dialyzed FBS, 5.12 µM	96	102	94.5
HPLM + 10% dialyzed FBS, 15.4 µM	105	91.3	92.5
HPLM + 10% dialyzed FBS, 46.1 µM	96.6	88.1	102
RPMI 5 mM glucose + 10% FBS, 0.000781 µM	97.1	99	98.4
RPMI 5 mM glucose + 10% FBS, 0.00234 µM	93.4	101	101
RPMI 5 mM glucose + 10% FBS, 0.00702 µM	96.3	111	106
RPMI 5 mM glucose + 10% FBS, 0.0211 µM	102	94.8	98.1
RPMI 5 mM glucose + 10% FBS, 0.0632 µM	107	91.5	111
RPMI 5 mM glucose + 10% FBS, 0.19 µM	98.4	101	111
RPMI 5 mM glucose + 10% FBS, 0.569 µM	105	103	95.9
RPMI 5 mM glucose + 10% FBS, 1.71 µM	101	97.7	89.6
RPMI 5 mM glucose + 10% FBS, 5.12 µM	88.4	95.1	84.3
RPMI 5 mM glucose + 10% FBS, 15.4 µM	93.6	91.7	96.9
RPMI 5 mM glucose + 10% FBS, 46.1 µM	90.1	94.1	93.3
RPMI 5 mM glucose + 10% dialyzed FBS, 0.000781 µM	102	102	104
RPMI 5 mM glucose + 10% dialyzed FBS, 0.00234 µM	105	104	100
RPMI 5 mM glucose + 10% dialyzed FBS, 0.00702 µM	104	98.6	104
RPMI 5 mM glucose + 10% dialyzed FBS, 0.0211 µM	111	99.7	106
RPMI 5 mM glucose + 10% dialyzed FBS, 0.0632 µM	108	102	97.2
RPMI 5 mM glucose + 10% dialyzed FBS, 0.19 µM	109	98.3	103
RPMI 5 mM glucose + 10% dialyzed FBS, 0.569 µM	101	97.3	105
RPMI 5 mM glucose + 10% dialyzed FBS, 1.71 µM	100	96	97.5
RPMI 5 mM glucose + 10% dialyzed FBS, 5.12 µM	102	91.6	99.7
RPMI 5 mM glucose + 10% dialyzed FBS, 15.4 µM	103	100	99.9
RPMI 5 mM glucose + 10% dialyzed FBS, 46.1 µM	97.8	89.5	102

AUC of viability dose-response curve
Details	NOMO1 [4]	P12-Ichikawa [5]	SEM cells [6]
HPLM + 10% dialyzed FBS	458	458	462
RPMI 5 mM glucose + 10% FBS	466	458	452
RPMI 5 mM glucose + 10% dialyzed FBS	466	458	471

C[C@]12CC[C@H]3[C@@H](CC[C@H]4NC(=O)\C=C/[C@]34C)[C@@H]1CC[C@@H]2C(=O)NC5=CC(=CC=C5C(F)(F)F)C(F)(F)F
cell viability [%]
Details	NOMO1 [1]	P12-Ichikawa [2]	SEM cells [3]
HPLM + 10% dialyzed FBS, 0.000781 µM	123	109	116
HPLM + 10% dialyzed FBS, 0.00234 µM	123	112	122
HPLM + 10% dialyzed FBS, 0.00702 µM	122	112	118
HPLM + 10% dialyzed FBS, 0.0211 µM	118	111	117
HPLM + 10% dialyzed FBS, 0.0632 µM	123	115	118
HPLM + 10% dialyzed FBS, 0.19 µM	114	111	61.3
HPLM + 10% dialyzed FBS, 0.569 µM	101	102	119
HPLM + 10% dialyzed FBS, 1.71 µM	118	104	113
HPLM + 10% dialyzed FBS, 5.12 µM	107	91.3	81.1
HPLM + 10% dialyzed FBS, 15.4 µM	96.1	107	111
HPLM + 10% dialyzed FBS, 46.1 µM	94.7	102	99.3
RPMI 5 mM glucose + 10% FBS, 0.000781 µM	117	117	123
RPMI 5 mM glucose + 10% FBS, 0.00234 µM	125	108	120
RPMI 5 mM glucose + 10% FBS, 0.00702 µM	114	114	138
RPMI 5 mM glucose + 10% FBS, 0.0211 µM	100	108	132
RPMI 5 mM glucose + 10% FBS, 0.0632 µM	111	111	120
RPMI 5 mM glucose + 10% FBS, 0.19 µM	109	117	115
RPMI 5 mM glucose + 10% FBS, 0.569 µM	112	110	124
RPMI 5 mM glucose + 10% FBS, 1.71 µM	112	105	129
RPMI 5 mM glucose + 10% FBS, 5.12 µM	107	107	56
RPMI 5 mM glucose + 10% FBS, 15.4 µM	96.3	103	128
RPMI 5 mM glucose + 10% FBS, 46.1 µM	98.8	104	126
RPMI 5 mM glucose + 10% dialyzed FBS, 0.000781 µM	105	104	114
RPMI 5 mM glucose + 10% dialyzed FBS, 0.00234 µM	120	111	141
RPMI 5 mM glucose + 10% dialyzed FBS, 0.00702 µM	105	109	120
RPMI 5 mM glucose + 10% dialyzed FBS, 0.0211 µM	118	108	126
RPMI 5 mM glucose + 10% dialyzed FBS, 0.0632 µM	104	117	121
RPMI 5 mM glucose + 10% dialyzed FBS, 0.19 µM	111	99.2	100
RPMI 5 mM glucose + 10% dialyzed FBS, 0.569 µM	111	99.3	126
RPMI 5 mM glucose + 10% dialyzed FBS, 1.71 µM	103	98.4	121
RPMI 5 mM glucose + 10% dialyzed FBS, 5.12 µM	94.9	96.7	37.1
RPMI 5 mM glucose + 10% dialyzed FBS, 15.4 µM	103	106	117
RPMI 5 mM glucose + 10% dialyzed FBS, 46.1 µM	96.9	97.5	105

AUC of viability dose-response curve
Details	NOMO1 [4]	P12-Ichikawa [5]	SEM cells [6]
HPLM + 10% dialyzed FBS	435	456	432
RPMI 5 mM glucose + 10% FBS	440	455	456
RPMI 5 mM glucose + 10% dialyzed FBS	461	452	442
